Source: EPA's ToxRefDB 2

How the values were obtained:
mouse [1] = details: Carcinogenicity, b6c3f1, Oral, Feed, dose end: 18 month, group: systemic
rat [2] = details: Multigenerational reproductive toxicity study, sprague dawley, Oral, Feed, dose end: 2 generation
rat [3] = details: Combined chronic toxicity/carcinogenicity; fischer; Oral; Feed; dose end: 2 year; group: systemic; systemic / clinical chemistry / alkaline phosphatase (alp/alk) / alkaline phosphatase (alp/alk) + systemic / clinical chemistry / globulins…
rat [4] = details: Prenatal developmental toxicity study, sprague dawley, Oral, Gavage/Intubation, dose end: 19 GD
dog [5] = details: Chronic toxicity, beagle, Oral, Feed, dose end: 104 week, group: systemic
rat [6] = details: Subchronic oral toxicity in rodents, other, Feed, dose end: 13 week, group: systemic, systemic / organ weight / liver / relative to body weight + systemic / organ weight / thymus / absolute + systemic / organ weight / thymus…
rabbit [7] = details: Prenatal developmental toxicity study; new zealand white; Oral; Gavage/Intubation; dose end: 19 GD; group: maternal; reproductive / reproductive performance / aborted / aborted + reproductive / reproductive performance / resorptions / resorptions + systemic…
rat [8] = details: Subchronic oral toxicity in rodents, long evans, Feed, dose end: 13 week, group: systemic, systemic / organ weight / liver / absolute + systemic / organ weight / liver / relative to body weight + systemic / pathology microscopic / …
rat [9] = details: Prenatal developmental toxicity study, other, Oral, Gavage/Intubation, dose end: 15 GD
rat [10] = details: Multigenerational reproductive toxicity study, sprague dawley, Oral, Feed, dose end: 2 generation; remark: listed apart in the source
rat [11] = details: Subchronic oral toxicity in rodents, sprague dawley, Diet, dose end: 13 week, group: systemic
mouse [12] = details: Carcinogenicity; cd1; Oral; Feed; dose end: 87 week; group: systemic; systemic / clinical chemistry / alanine aminotransferase (alt/sgpt) / alanine aminotransferase (alt/sgpt) + systemic / clinical chemistry / …
rabbit [13] = details: Prenatal developmental toxicity study; new zealand white; Oral; Gavage/Intubation; dose end: 18 GD; group: maternal; systemic / in life observation / body weight / body weight gain + systemic / in life observation / clinical signs / anorexia + systemic / in…
mouse [14] = details: Carcinogenicity, cd1, Oral, Feed, dose end: 78 week, group: systemic
rat [15] = details: Prenatal developmental toxicity study, sprague dawley, Oral, Gavage/Intubation, dose end: 15 GD
rabbit [16] = details: Prenatal developmental toxicity study, new zealand white, Oral, Gavage/Intubation, dose end: 19 GD
dog [17] = details: Chronic toxicity, beagle, Oral, Capsule, dose end: 52 week, group: systemic
rat [18] = details: Subchronic oral toxicity in rodents, other, [Not Specified], dose end: 13 week, group: systemic
rat [19] = details: Combined chronic toxicity/carcinogenicity, other, Oral, Feed, dose end: 100 week, group: systemic
rat [20] = details: Multigenerational reproductive toxicity study, sprague dawley, Oral, Feed, dose end: 2 generation; remark: listed apart in the source
[21] = systemic / organ weight / liver / absolute + systemic / in life observation / body weight / body weight
[22] = systemic / organ weight / liver / absolute + systemic / in life observation / body weight / body weight + systemic / organ weight / liver / …
[23] = group: offspring, developmental / offspring survival late / viability index / viability index + systemic / pathology microscopic / kidney / dilatation
[24] = group: offspring, developmental / offspring survival late / viability index / viability index + systemic / pathology microscopic / kidney / dilatation + …
[25] = group: parental, systemic / pathology microscopic / kidney / dilatation + systemic / in life observation / body weight / body weight + systemic / in life …
[26] = group: developmental, developmental / developmental malformation / bone / incomplete ossification + developmental / developmental malformation / brain / dilated …
[27] = group: maternal, systemic / in life observation / clinical signs / piloerection + systemic / in life observation / clinical signs / salivation
[28] = group: maternal, systemic / in life observation / clinical signs / piloerection + systemic / in life observation / clinical signs / salivation + reproductive…
[29] = systemic / clinical chemistry / alkaline phosphatase (alp/alk) / alkaline phosphatase (alp/alk) + systemic / in life observation / body …
[30] = systemic / in life observation / body weight / body weight gain + systemic / organ weight / liver / absolute + systemic / organ weight / …
[31] = group: developmental, developmental / developmental malformation / bone / bent + developmental / developmental malformation / bone / fused + developmental / …
[32] = group: maternal, systemic / in life observation / clinical signs / defecation + systemic / in life observation / clinical signs / defecation (diarrhea) + …
[33] = group: offspring, systemic / in life observation / body weight / offspring (pup) weight + systemic / in life observation / body weight / offspring (pup) …
[34] = group: parental, systemic / pathology microscopic / kidney / hyperplasia + systemic / pathology microscopic / kidney / mineralization + systemic / pathology …
[35] = group: reproductive, reproductive / offspring survival early / birth index / live birth index
[36] = systemic / in life observation / clinical signs / anemia - microcytic + systemic / urinalysis / volume / volume + systemic / clinical …
[37] = systemic / pathology microscopic / liver / vacuolization
[38] = systemic / pathology microscopic / liver / vacuolization + systemic / in life observation / body weight / body weight gain + systemic / …
[39] = group: developmental, developmental / developmental malformation / bone / full supernumerary
[40] = group: maternal, systemic / in life observation / body weight / body weight gain
[41] = group: developmental, developmental / developmental malformation / bone / irregular ossification + developmental / developmental malformation / bone / misshapen …
[42] = group: maternal, systemic / in life observation / body weight / body weight gain + systemic / in life observation / food consumption / food consumption + …
[43] = systemic / clinical chemistry / alanine aminotransferase (alt/sgpt) / alanine aminotransferase (alt/sgpt) + systemic / clinical chemistry / …
[44] = systemic / in life observation / body weight / body weight gain
[45] = systemic / urinalysis / ph / ph
[46] = systemic / pathology gross / adrenal gland / enlarged
[47] = group: offspring, developmental / offspring survival late / viability index / viability index
[48] = group: offspring, developmental / offspring survival late / viability index / viability index + systemic / in life observation / body weight / offspring (pup…
[49] = group: parental, systemic / in life observation / body weight / body weight + systemic / in life observation / mortality / mortality + systemic / pathology …

O=C([O-])c1cc(Oc2ccc(C(F)(F)F)cc2Cl)ccc1[N+](=O)[O-].[Na+] [Acifluorfen-sodium]
LOAEL (mouse [1]; [21]): 119 mg/kg/day
NOAEL (mouse [1]; [21]): < 119 mg/kg/day
LEL (mouse [1]; [22]): 119 mg/kg/day
NEL (mouse [1]; [22]): < 119 mg/kg/day
LEL (rat [2]; [23]): 50 mg/kg/day
LOAEL (rat [2]; [23]): 50 mg/kg/day
NEL (rat [2]; [24]): 2.5 mg/kg/day
NOAEL (rat [2]; [24]): 2.5 mg/kg/day
LOAEL (rat [2]; group: parental, systemic / pathology microscopic / kidney / dilatation): 50 mg/kg/day
NEL (rat [2]; [25]): 2.5 mg/kg/day
NOAEL (rat [2]; [25]): 2.5 mg/kg/day
LEL (rat [2]; group: parental, systemic / pathology microscopic / kidney / dilatation + systemic / in life observation / body weight / body weight gain): 50 mg/kg/day
LEL (rat [3]): 125 mg/kg/day
LOAEL (rat [3]): 125 mg/kg/day
NEL (rat [3]): 25 mg/kg/day
NOAEL (rat [3]): 25 mg/kg/day
LEL (rat [4]; [26]): 90 mg/kg/day
LOAEL (rat [4]; [26]): 90 mg/kg/day
NEL (rat [4]; [26]): 20 mg/kg/day
NOAEL (rat [4]; [26]): 20 mg/kg/day
LEL (rat [4]; [27]): 90 mg/kg/day
LOAEL (rat [4]; [27]): 90 mg/kg/day
NEL (rat [4]; [28]): 20 mg/kg/day
NOAEL (rat [4]; [28]): 20 mg/kg/day

CCOc1cc(Oc2ccc(C(F)(F)F)cc2Cl)ccc1[N+](=O)[O-] [Oxyfluorfen]
LOAEL (dog [5]; [29]): 18.5 mg/kg/day
NOAEL (dog [5]; [29]): 3.1 mg/kg/day
LEL (dog [5]; [30]): 3 mg/kg/day
NEL (dog [5]; [30]): < 3 mg/kg/day
LEL (rat [6]): 71 mg/kg/day
LOAEL (rat [6]): 71 mg/kg/day
NEL (rat [6]): 14 mg/kg/day
NOAEL (rat [6]): 14 mg/kg/day
LEL (rabbit [7]): 90 mg/kg/day
LOAEL (rabbit [7]): 90 mg/kg/day
NEL (rabbit [7]): 30 mg/kg/day
NOAEL (rabbit [7]): 30 mg/kg/day
LEL (rat [8]): 51.4 mg/kg/day
LOAEL (rat [8]): 51.4 mg/kg/day
NEL (rat [8]): < 51.4 mg/kg/day
NOAEL (rat [8]): < 51.4 mg/kg/day
LEL (rat [9]; [31]): 183 mg/kg/day
LOAEL (rat [9]; [31]): 183 mg/kg/day
NEL (rat [9]; [31]): 18 mg/kg/day
NOAEL (rat [9]; [31]): 18 mg/kg/day
LEL (rat [9]; [32]): 183 mg/kg/day
LOAEL (rat [9]; [32]): 183 mg/kg/day
NEL (rat [9]; [32]): 18 mg/kg/day
NOAEL (rat [9]; [32]): 18 mg/kg/day
LEL (rat [10]; [33]): 146 mg/kg/day
LOAEL (rat [10]; [33]): 146 mg/kg/day
NEL (rat [10]; [33]): 36.4 mg/kg/day
NOAEL (rat [10]; [33]): 36.4 mg/kg/day
LEL (rat [10]; [34]): 120 mg/kg/day
LOAEL (rat [10]; [34]): 120 mg/kg/day
NEL (rat [10]; [34]): 30.9 mg/kg/day
NOAEL (rat [10]; [34]): 30.9 mg/kg/day
LEL (rat [10]; [35]): 146 mg/kg/day
LOAEL (rat [10]; [35]): 146 mg/kg/day
NEL (rat [10]; [35]): 36.4 mg/kg/day
NOAEL (rat [10]; [35]): 36.4 mg/kg/day
LEL (rat [11]; systemic / hematology / mean corpuscular (cell) volume (mcv) / mean corpuscular (cell) volume (mcv) + systemic / hematology / mean …): 144 mg/kg/day
LOAEL (rat [11]; systemic / in life observation / clinical signs / anemia - microcytic + systemic / urinalysis / volume / volume): 585 mg/kg/day
NEL (rat [11]; [36]): 46.7 mg/kg/day
NOAEL (rat [11]; [36]): 144 mg/kg/day
LEL (mouse [12]): 33 mg/kg/day
LOAEL (mouse [12]): 33 mg/kg/day
NEL (mouse [12]): 3 mg/kg/day
NOAEL (mouse [12]): 3 mg/kg/day
LEL (rabbit [13]): 30 mg/kg/day
LOAEL (rabbit [13]): 30 mg/kg/day
NEL (rabbit [13]): 10 mg/kg/day
NOAEL (rabbit [13]): 10 mg/kg/day

CC1(C)CC/C(=C\c2ccc(Cl)cc2)C1(O)Cn1cncn1 (stereo unspecified) [Triticonazole]
NEL (mouse [14]; [37]): 17.4 mg/kg/day
NOAEL (mouse [14]; [37]): 17.4 mg/kg/day
LEL (mouse [14]; [38]): 202 mg/kg/day
LOAEL (mouse [14]; [38]): 202 mg/kg/day
LEL (rat [15]; [39]): 1000 mg/kg/day
LOAEL (rat [15]; [39]): 1000 mg/kg/day
NEL (rat [15]; [39]): 200 mg/kg/day
NOAEL (rat [15]; [39]): 200 mg/kg/day
LEL (rat [15]; [40]): 1000 mg/kg/day
LOAEL (rat [15]; [40]): 1000 mg/kg/day
NEL (rat [15]; [40]): 200 mg/kg/day
NOAEL (rat [15]; [40]): 200 mg/kg/day
LEL (rabbit [16]; [41]): 75 mg/kg/day
LOAEL (rabbit [16]; [41]): 75 mg/kg/day
NEL (rabbit [16]; [41]): 50 mg/kg/day
NOAEL (rabbit [16]; [41]): 50 mg/kg/day
LEL (rabbit [16]; [42]): 50 mg/kg/day
LOAEL (rabbit [16]; [42]): 50 mg/kg/day
NEL (rabbit [16]; [42]): 25 mg/kg/day
NOAEL (rabbit [16]; [42]): 25 mg/kg/day
LOAEL (dog [17]; [43]): 150 mg/kg/day
NOAEL (dog [17]; [43]): 25 mg/kg/day
LEL (dog [17]; [44]): 2.5 mg/kg/day
NEL (dog [17]; [44]): < 2.5 mg/kg/day
LOAEL (rat [18]; systemic / pathology microscopic / adrenal gland / vacuolization): 19.8 mg/kg/day
NOAEL (rat [18]; systemic / pathology microscopic / adrenal gland / vacuolization + systemic / clinical chemistry / alkaline phosphatase (alp/alk) / alkaline…): 2 mg/kg/day
LEL (rat [18]; [45]): 2.2 mg/kg/day
NEL (rat [18]; [45]): < 2.2 mg/kg/day
LEL (rat [19]; [46]): 0.2 mg/kg/day
NEL (rat [19]; [46]): < 0.2 mg/kg/day
LOAEL (rat [19]; systemic / pathology microscopic / adrenal gland / inflammation + systemic / in life observation / body weight / body weight + systemic / in…): 287 mg/kg/day
NOAEL (rat [19]; systemic / pathology microscopic / adrenal gland / inflammation + systemic / pathology microscopic / adrenal gland / atypia nuclear): 38.3 mg/kg/day
LEL (rat [20]; [47]): 0.25 mg/kg/day
NEL (rat [20]; [47]): < 0.25 mg/kg/day
LOAEL (rat [20]; [48]): 250 mg/kg/day
NOAEL (rat [20]; [48]): 37.5 mg/kg/day
LOAEL (rat [20]; [49]): 250 mg/kg/day
NOAEL (rat [20]; [49]): 37.5 mg/kg/day
NEL (rat [20]; group: parental, systemic / in life observation / body weight / body weight + systemic / pathology microscopic / adrenal gland / vacuolization + systemic / …): 1.25 mg/kg/day
LEL (rat [20]; group: parental, systemic / organ weight / adrenal gland / absolute): 37.5 mg/kg/day
LEL (rat [20]; [35]): 0.25 mg/kg/day
NEL (rat [20]; [35]): < 0.25 mg/kg/day
LOAEL (rat [20]; group: reproductive, reproductive / reproductive performance / fertility / fertility): 250 mg/kg/day
NOAEL (rat [20]; group: reproductive, reproductive / reproductive performance / fertility / fertility + reproductive / offspring survival early / birth index / live birth index…): 37.5 mg/kg/day
